Measured values reported in patent US11857519B2, “Compounds and methods for the targeted degradation of enhancer of zeste homolog 2 polypeptide” (Arvinas Operations, Inc., priority 2016, dated 2024).

The molecules below were run against T1, EZH2 (Homo sapiens, UniProt Q15910) (assay: Cellular assay of target protein degradation (VCaP cells, ELISA)). Conditions: 4 hours, protein degradation range at indicated concentration (relative to DMSO control).
T1 construct: Protocol of the Cellular Assay of Target Protein Degradation (VCaP Cells, ELISA); endogenous in cells; host or cells: VCaP cells
Assay type: cell-based
Procedure: Protocol of the Cellular Assay of Target Protein Degradation (VCaP Cells, ELISA).
For detection Cell Signaling PathScan Sandwich ELISA Catalog #12850 Lot 11 was used. VCaP cells were cultured in ATCC DMEM+ATCC FBS and plated 40,000/well 100 μl/well in RPMI P/S with 5% CSS Omega (bovine) serum into a 96 well plate. The cells were grown for a minimum of 3 days, dosed with compounds in 0.1% DMSO (diluted with 5% CSS) and incubated with aspiration for 4 hours. 100 μl of 1× Cell Signaling lysis buffer #9803 (36 mL dH2O+4 mL Cell Signaling lysis buffer) was added. The incubation was placed on cold room shaker for 10 minutes at speed 8-9. 5 μl to 100 μL of Diluent was transferred to ELISA plate (0.15 μg/mL−0.075 μg/mL) and stored at 4° C. overnight on cold room shaker speed 5 (gentle swirl) and then shaken next morning at 37° C. for 30 minutes. The preparation was washed 4×200 μl with ELISA wash buffer and aspirated with eight-channel aspirator. 100 μl/well of target protein detection antibody was added after, which the preparation was covered and shaken at 37° C. for 1 hour. 100 μl TMB was added, and the mixture was shaken for 5 min while under observation. When TMB turned light blue, 100 μl of Stop solution was added, and the mixture was shaken and read at 450 nm. Also read at 562 nm for background subtraction.

T1 sequence (Q15910 whole entry): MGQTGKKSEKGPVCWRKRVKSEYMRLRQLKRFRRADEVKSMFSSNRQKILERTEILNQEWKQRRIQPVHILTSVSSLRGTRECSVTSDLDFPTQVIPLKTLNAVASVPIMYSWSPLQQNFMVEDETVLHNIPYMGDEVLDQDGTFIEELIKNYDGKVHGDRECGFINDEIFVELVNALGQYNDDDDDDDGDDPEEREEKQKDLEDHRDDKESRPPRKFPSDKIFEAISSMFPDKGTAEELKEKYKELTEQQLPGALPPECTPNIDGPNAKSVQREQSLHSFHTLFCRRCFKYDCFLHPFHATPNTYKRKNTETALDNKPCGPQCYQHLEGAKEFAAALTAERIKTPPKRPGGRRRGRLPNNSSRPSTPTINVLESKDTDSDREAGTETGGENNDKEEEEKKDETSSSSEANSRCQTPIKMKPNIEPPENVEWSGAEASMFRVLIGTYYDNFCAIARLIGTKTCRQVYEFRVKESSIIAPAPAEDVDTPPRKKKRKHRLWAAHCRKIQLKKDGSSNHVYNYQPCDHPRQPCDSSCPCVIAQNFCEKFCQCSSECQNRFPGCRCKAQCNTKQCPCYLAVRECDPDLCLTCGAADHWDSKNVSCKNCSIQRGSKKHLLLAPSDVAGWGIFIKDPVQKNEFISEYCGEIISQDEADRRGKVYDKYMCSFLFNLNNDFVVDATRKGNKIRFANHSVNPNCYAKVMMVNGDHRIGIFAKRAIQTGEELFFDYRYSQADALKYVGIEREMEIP
T1 sequence (O75530 whole entry partner): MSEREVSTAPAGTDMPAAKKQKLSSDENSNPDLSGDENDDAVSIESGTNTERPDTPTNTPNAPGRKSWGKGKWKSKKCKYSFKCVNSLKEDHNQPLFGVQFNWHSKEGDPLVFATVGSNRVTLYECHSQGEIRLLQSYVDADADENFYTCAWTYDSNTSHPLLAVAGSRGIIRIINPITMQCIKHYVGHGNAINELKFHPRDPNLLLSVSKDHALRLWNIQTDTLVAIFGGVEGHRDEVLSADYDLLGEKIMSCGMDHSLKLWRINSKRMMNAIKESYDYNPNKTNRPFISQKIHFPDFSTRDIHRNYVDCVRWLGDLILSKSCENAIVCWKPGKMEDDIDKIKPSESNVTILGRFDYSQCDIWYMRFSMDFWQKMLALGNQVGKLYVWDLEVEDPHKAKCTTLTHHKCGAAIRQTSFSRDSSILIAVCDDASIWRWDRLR
T1 sequence (Q15022 whole entry partner): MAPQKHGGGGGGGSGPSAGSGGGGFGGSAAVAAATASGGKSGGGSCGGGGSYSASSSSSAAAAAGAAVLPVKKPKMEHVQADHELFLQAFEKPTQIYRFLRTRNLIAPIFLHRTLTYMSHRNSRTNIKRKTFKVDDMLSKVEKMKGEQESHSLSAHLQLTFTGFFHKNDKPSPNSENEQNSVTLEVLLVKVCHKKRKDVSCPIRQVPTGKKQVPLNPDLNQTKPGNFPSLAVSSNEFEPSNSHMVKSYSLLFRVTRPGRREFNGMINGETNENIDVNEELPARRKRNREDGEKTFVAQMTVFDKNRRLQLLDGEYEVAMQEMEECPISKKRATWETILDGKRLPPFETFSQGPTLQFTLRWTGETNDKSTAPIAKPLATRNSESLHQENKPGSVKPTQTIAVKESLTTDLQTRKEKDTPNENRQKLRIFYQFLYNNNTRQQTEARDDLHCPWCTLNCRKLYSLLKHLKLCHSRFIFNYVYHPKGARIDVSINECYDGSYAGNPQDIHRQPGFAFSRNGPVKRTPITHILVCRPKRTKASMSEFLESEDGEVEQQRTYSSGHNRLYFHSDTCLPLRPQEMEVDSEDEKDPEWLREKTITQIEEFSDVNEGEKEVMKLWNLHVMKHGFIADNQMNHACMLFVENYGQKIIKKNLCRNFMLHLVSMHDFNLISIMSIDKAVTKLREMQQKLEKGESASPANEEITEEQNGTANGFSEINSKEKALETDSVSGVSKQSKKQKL

percent target protein degradation class | SMILES
B (B = degradation between 30% and 60%) | CCN(c1cc(-c2ccc(OCCOCCCCCOc3cc(-c4scnc4C)ccc3CNC(=O)[C@@H]3C[C@@H](O)CN3C(=O)[C@H](C(C)C)N3Cc4ccccc4C3=O)cc2)cc(C(=O)NCc2c(C)cc(C)[nH]c2=O)c1C)C1CCOCC1 [Compound 49, (2S,4R)-N-({2-[(5-{2-[4-(3-{[(4,6-dimethyl-2-oxo-1,2-dihydropyridin-3-yl)methyl]carbamoyl}-5-[ethyl(oxan-4-yl)amino]-4-methylphenyl)phenoxy]ethoxy}pentyl)oxy]-4-(4-methyl-1,3-thiazol-5-yl)phenyl}methyl)-4-hydroxy-1-[(2S)-3-methyl-2-(1-oxo-2,3-dihydro-1H-isoindol-2-yl)butanoyl]pyrrolidine-2-carboxamide]
B (B = degradation between 30% and 60%) | Cc1cc(C)c(CNC(=O)c2cc(-c3ccc(CN4CCN(CCOCC(=O)N[C@H](C(=O)N5C[C@H](O)C[C@H]5C(=O)NCc5ccc(-c6scnc6C)cc5)C(C)(C)C)CC4)cc3)cc3c2ccn3C2CCCC2)c(=O)[nH]1 [Compound 1, 1-cyclopentyl-N-[(4,6-dimethyl-2-oxo-1,2-dihydropyridin-3-yl)methyl]-6-[4-({4-[2-({[(2S)-1-[(2S,4R)-4-hydroxy-2-({[4-(4-methyl-1,3-thiazol-5-yl)phenyl]methyl}carbamoyl)pyrrolidin-1-yl]-3,3-dimethyl-1-oxobutan-2-yl]carbamoyl}methoxy)ethyl]piperazin-1-yl}methyl)phenyl]-1H-indole-4-carboxamide]
B (B = degradation between 30% and 60%) | CCN(c1cc(-c2ccc(OCCOCc3ccc4c(c3)C(=O)N([C@H](C(=O)N3C[C@H](O)C[C@H]3C(=O)N[C@@H](C)c3ccc(-c5scnc5C)cc3)C(C)C)C4)cc2)cc(C(=O)NCc2c(C)cc(C)[nH]c2=O)c1C)C1CCOCC1 [Compound 108, (2S,4R)-1-((S)-2-(6-((2-((3′-(((4,6-dimethyl-2-oxo-1,2-dihydropyridin-3-yl)methyl)carbamoyl)-5′-(ethyl(tetrahydro-2H-pyran-4-yl)amino)-4′-methyl-[1,1′-biphenyl]-4-yl)oxy)ethoxy)methyl)-1-oxoisoindolin-2-yl)-3-methylbutanoyl)-4-hydroxy-N-((S)-1-(4-(4-methylthiazol-5-yl)phenyl)ethyl)pyrrolidine-2-carboxamide]
A (A = degradation more than 60%) | CCN(c1cc(-c2ccc(OCCN3CCN(c4ccc5c(c4)C(=O)N(C4CCC(=O)NC4=O)C5=O)CC3)cc2)cc(C(=O)NCc2c(C)cc(C)[nH]c2=O)c1C)C1CCOCC1 (stereo not shown) [Compound 91, N-((4,6-dimethyl-2-oxo-1,2-dihydropyridin-3-yl)methyl)-4′-(2-(4-(2-(2,6-dioxopiperidin-3-yl)-1,3-dioxoisoindolin-5-yl)piperazin-1-yl)ethoxy)-5-(ethyl(tetrahydro-2H-pyran-4-yl)amino)-4-methyl-[1,1′-biphenyl]-3-carboxamide]
A (A = degradation more than 60%) | CCN(c1cc(-c2ccc(CCCOCCOc3cc(C(C(=O)N4C[C@H](O)C[C@H]4C(=O)N[C@@H](C)c4ccc(-c5scnc5C)cc4)C(C)C)on3)cc2)cc(C(=O)NCc2c(C)cc(C)[nH]c2=O)c1C)C1CCOCC1 (stereo partly drawn) [Compound 111, (2S,4R)-1-(2-(3-(2-(3-(3′-(((4,6-dimethyl-2-oxo-1,2-dihydropyridin-3-yl)methyl)carbamoyl)-5′-(ethyl(tetrahydro-2H-pyran-4-yl)amino)-4′-methyl-[1,1′-biphenyl]-4-yl)propoxy)ethoxy)isoxazol-5-yl)-3-methylbutanoyl)-4-hydroxy-N-((S)-1-(4-(4-methylthiazol-5-yl)phenyl)ethyl)pyrrolidine-2-carboxamide]
B (B = degradation between 30% and 60%) | CCN(c1cc(-c2ccc(OCCOCCOCCOCCOCCOc3ccc(CCN4CC[C@@H]5CCN(C(=O)[C@@H](NC(=O)[C@H](C)NC)C6CCCCC6)[C@@H]5C4)cc3)cc2)cc(C(=O)NCc2c(C)cc(C)[nH]c2=O)c1C)C1CCOCC1 (racemic) [Compound 29, 5-(4-{[1-(4-{2-[(3aR,7aS)-1-[(2S)-2-cyclohexyl-2-[(2S)-2-(methylamino)propanamido]acetyl]-octahydro-1H-pyrrolo[2,3-c]pyridin-6-yl]ethyl]phenyl)-1,4,7,10,13-pentaoxapentadecan-15-yl]oxy}phenyl)-N-[(4,6-dimethyl-2-oxo-1,2-dihydropyridin-3-yl)methyl]-3-[ethyl(oxan-4-yl)amino]-2-methylbenzamide]
B (B = degradation between 30% and 60%) | CCN(c1cc(-c2ccc(CCCOCCCCC(=O)N[C@H](C(=O)N3C[C@H](O)C[C@H]3C(=O)NCc3ccc(-c4scnc4C)cc3)C(C)(C)C)cc2)cc(C(=O)NCc2c(C)cc(C)[nH]c2=O)c1C)C1CCOCC1 [Compound 44, (2S,4R)-1-[(2S)-2-(5-{3-[4-(3-{[(4,6-dimethyl-2-oxo-1,2-dihydropyridin-3-yl)methyl]carbamoyl}-5-[ethyl(oxan-4-yl)amino]-4-methylphenyl)phenyl]propoxy}pentanamido)-3,3-dimethylbutanoyl]-4-hydroxy-N-{[4-(4-methyl-1,3-thiazol-5-yl)phenyl]methyl}pyrrolidine-2-carboxamide]
B (B = degradation between 30% and 60%) | CCN(c1cc(-c2ccc(OCCOCCOCCOc3ccc(-c4csc([C@@H]5CCCN5C(=O)[C@@H](NC(=O)[C@H](C)NC)C5CCCCC5)n4)c4ccccc34)cc2)cc(C(=O)NCc2c(C)cc(C)[nH]c2=O)c1C)C1CCOCC1 [Compound 28, 5-{4-[2-(2-{2-[(4-{2-[(2S)-1-[(2S)-2-cyclohexyl-2-[(2S)-2-(methylamino)propanamido]acetyl]pyrrolidin-2-yl]-1,3-thiazol-4-yl}naphthalen-1-yl)oxy]ethoxy}ethoxy)ethoxy]phenyl}-N-[(4,6-dimethyl-2-oxo-1,2-dihydropyridin-3-yl)methyl]-3-[ethyl(oxan-4-yl)amino]-2-methylbenzamide]
A (A = degradation more than 60%) | CCN(c1cc(-c2ccc(OCCCOCCCOCC(=O)N[C@H](C(=O)N3C[C@H](O)C[C@H]3C(=O)NCc3ccc(-c4scnc4C)cc3)C(C)(C)C)cc2)cc(C(=O)NCc2c(C)cc(C)[nH]c2=O)c1C)C1CCOCC1 [Compound 48, (2S,4R)-1-[(2S)-2-[2-(3-{3-[4-(3-{[(4,6-dimethyl-2-oxo-1,2-dihydropyridin-3-yl)methyl]carbamoyl}-5-[ethyl(oxan-4-yl)amino]-4-methylphenyl)phenoxy]propoxy}propoxy)acetamido]-3,3-dimethylbutanoyl]-4-hydroxy-N-{[4-(4-methyl-1,3-thiazol-5-yl)phenyl]methyl}pyrrolidine-2-carboxamide]
A (A = degradation more than 60%) | CCN(c1cc(-c2ccc(OCCCOCC(=O)N[C@H](C(=O)N3C[C@H](O)C[C@H]3C(=O)NCc3ccc(-c4scnc4C)cc3)C(C)(C)C)cc2)cc(C(=O)NCc2c(C)cc(C)[nH]c2=O)c1C)C1CCOCC1 [Compound 41, (2S,4R)-1-[(2S)-2-(2-{3-[4-(3-{[(4,6-dimethyl-2-oxo-1,2-dihydropyridin-3-yl)methyl]carbamoyl}-5-[ethyl(oxan-4-yl)amino]-4-methylphenyl)phenoxy]propoxy}acetamido)-3,3-dimethylbutanoyl]-4-hydroxy-N-{[4-(4-methyl-1,3-thiazol-5-yl)phenyl]methyl}pyrrolidine-2-carboxamide]

SMILES | percent target protein degradation class
Cc1cc(C)c(CNC(=O)c2c(C)n(C(C)C3CCN(C(=O)COCCOCCOCCOCCOCCNc4cccc5c4C(=O)N(C4CCC(=O)NC4=O)C5=O)CC3)c3ccccc23)c(=O)[nH]1 (stereo not shown) [Compound 12, N-[(4,6-dimethyl-2-oxo-1,2-dihydropyridin-3-yl)methyl]-1-[1-(1-{1-[2-(2,6-dioxopiperidin-3-yl)-1,3-dioxo-2,3-dihydro-1H-isoindol-4-yl]-4,7,10,13,16-pentaoxa-1-azaoctadecanoyl}piperidin-4-yl)ethyl]-2-methyl-1H-indole-3-carboxamide] | B (B = degradation between 30% and 60%)
CCN(c1cc(-c2ccc(OCCCCOc3ccc4c(c3)C(=O)N(C3CCC(=O)NC3=O)C4=O)cc2)cc(C(=O)NCc2c(C)cc(C)[nH]c2=O)c1C)C1CCOCC1 (stereo not shown) [Compound 60, N-[(4,6-dimethyl-2-oxo-1,2-dihydropyridin-3-yl)methyl]-5-[4-(4-{[2-(2,6-dioxopiperidin-3-yl)-1,3-dioxo-2,3-dihydro-1H-isoindol-5-yl]oxy}butoxy)phenyl]-3-[ethyl(oxan-4-yl)amino]-2-methylbenzamide] | A (A = degradation more than 60%)
Cc1cc(C)c(CNC(=O)c2c(C)n(C(C)C3CCN(C(=O)COCCOCCOCCOCCNc4cccc5c4C(=O)N(C4CCC(=O)NC4=O)C5=O)CC3)c3ccccc23)c(=O)[nH]1 (stereo not shown) [Compound 10, N-[(4,6-dimethyl-2-oxo-1,2-dihydropyridin-3-yl)methyl]-1-[1-(1-{1-[2-(2,6-dioxopiperidin-3-yl)-1,3-dioxo-2,3-dihydro-1H-isoindol-4-yl]-4,7,10,13-tetraoxa-1-azapentadecanoyl}piperidin-4-yl)ethyl]-2-methyl-1H-indole-3-carboxamide] | B (B = degradation between 30% and 60%)
